Experiments:
[1] = molecular target: T1, 3βHSD (Homo sapiens, UniProt P14060); assay: Conversion of [3H]-DHEA by 3βHSD to AD in prostate cancer cells (HPLC/TLC); assay type: cell-based; details: for 3βHSD inhibition activity relative to D4A: LNCaP, [3H]-DHEA to AD, 48 hours
T1 construct: endogenous in cells; host or cells: LNCaP, VCaP
T1 sequence (P14060 2-373 limits assumed): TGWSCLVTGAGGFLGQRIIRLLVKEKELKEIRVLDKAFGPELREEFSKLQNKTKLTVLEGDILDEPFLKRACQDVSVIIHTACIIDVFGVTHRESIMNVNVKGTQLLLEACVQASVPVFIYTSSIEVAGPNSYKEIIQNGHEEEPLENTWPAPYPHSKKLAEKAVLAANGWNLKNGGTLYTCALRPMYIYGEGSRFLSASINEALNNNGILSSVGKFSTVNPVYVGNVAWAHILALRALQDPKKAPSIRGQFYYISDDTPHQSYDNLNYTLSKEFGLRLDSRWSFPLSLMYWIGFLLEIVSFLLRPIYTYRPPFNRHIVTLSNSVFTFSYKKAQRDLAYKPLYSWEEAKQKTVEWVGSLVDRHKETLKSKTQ
Experimental: (§1) Cell Line Metabolism: Cells were seeded and incubated in 12-well plates with 0.2 million cells/well for ˜24 h and then incubated with a mixture of radioactive ([^3H]-labeled) and non-radioactive androgens (final concentration, 100 nM; ˜1,000,000 cpm/well; PerkinElmer, Waltham, Mass.) at 37° C. Aliquots of medium were collected at the indicated times. Collected medium was treated with 1,000 units of β-glucuronidase (Helix pomatia; Sigma-Aldrich) at 65° C. for 2 h, extracted with 860 μL ethyl acetate:isooctane (1:1), and concentrated under nitrogen gas. Xenograft Metabolism: 10^7 LNCaP or VCaP cells were injected subcutaneously with Matrigel into surgically orchiectomized NSG mice that were implanted with 5 mg 90-day sustained-release DHEA pellets (Innovative Research of American, Sarasota, Fla.). Xenografts were harvested when they reached 1000 mm^3, minced, and cultured in DMEM with 10% FBS at 37° C. with mixture of radioactive ([^3H]-labeled) and non-radioactive androgens, or Abi, when they reached 1000 mm^3. Each xenograft was analyzed in triplicate in at least three independent experiments. Aliquots of medium were collected at the indicated times. Collected medium was treated with 1,000 units of β-glucuronidase at 65° C. for 2 h, extracted with 860 μL ethyl acetate:isooctane (1:1), and concentrated under nitrogen gas.
Dried samples were reconstituted in 50% methanol and injected into the HPLC. Steroids and drug metabolites were separated on Kinetex 100×2.1 mm, 2.6 μm particle size C18 reverse-phase column (Phenomenex, Torrance, Calif.) using a methanol/water gradient at 30° C. […] Alternatively, dried samples were applied to plastic-backed silica gel plates and separated by thin-layer chromatography (TLC) using a mobile phase of 3:1 chloroform:ethyl acetate, followed by exposure of the plates to a phosphorimager screen and quantitated with a Storm model 860 phosphorimager (Applied Biosystems, Foster City, Calif.). […] Results are shown as mean±SD. […]

[2] = molecular target: T2, CYP17A1 (Homo sapiens, UniProt P05093); assay: Conversion of [3H]-pregnenolone to DHEA in 293 cells expressing CYP17A1; assay type: cell-based; details: for CYP17A1 inhibition activity relative to Abi and D4A: 293 cells overexpressing CYP17A1, [3H]-pregnenolone to DHEA
T2 construct: expressed in transfected cells
T2 sequence (P05093 1-508): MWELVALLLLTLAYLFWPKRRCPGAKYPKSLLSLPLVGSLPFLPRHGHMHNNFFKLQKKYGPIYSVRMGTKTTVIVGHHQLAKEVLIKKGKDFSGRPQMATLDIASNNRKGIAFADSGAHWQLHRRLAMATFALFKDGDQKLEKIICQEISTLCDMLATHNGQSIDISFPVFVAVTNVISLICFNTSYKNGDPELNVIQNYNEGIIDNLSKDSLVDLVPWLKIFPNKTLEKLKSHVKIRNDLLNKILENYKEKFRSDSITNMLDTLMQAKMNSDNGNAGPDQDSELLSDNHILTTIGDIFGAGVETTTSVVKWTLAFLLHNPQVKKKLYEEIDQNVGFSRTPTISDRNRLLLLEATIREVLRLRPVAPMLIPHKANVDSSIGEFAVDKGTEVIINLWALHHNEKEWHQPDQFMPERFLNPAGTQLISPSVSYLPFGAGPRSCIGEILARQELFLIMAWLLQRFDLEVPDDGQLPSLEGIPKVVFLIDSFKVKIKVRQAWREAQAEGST
Text: LNCaP and VCaP cells were purchased from the American Type Culture Collection (Manassas, Va.) and maintained in RPMI-1640 with 10% FBS. LAPC4 cells were kindly provided by Dr. Charles Sawyers (Memorial Sloan Kettering Cancer Center, New York, N.Y.) and grown in Iscove's Modified Dulbecco's Medium with 10% FBS. C4-2 cells were kindly provided by Dr. Leland Chung (Cedars-Sinai Medical Center, Los Angeles, Calif.) and maintained in RPMI-1640 with 10% FBS. All experiments done with LNCaP and VCaP were done in plates coated with poly-DL-ornithine (Sigma-Aldrich, St. Louis, Mo.). A 293 cell line stably expressing human CYP17A1 was generated by transfection with plasmid pcDNA3-CYP17 (a generous gift of Dr. Walter Miller, University of California, San Francisco) and selection with G418. Cell lines was authenticated by DDC Medical (Fairfield, Ohio) and determined to be […] mycoplasma free with primers.
as §1, with “Collected medium was treated with 1,000 units of β-glucuronidase at 65° C. for 2 h, extracted with 860 μL ethyl acetate:isooctane (1:1), and concentrated under nitrogen gas.” left out
Dried samples were reconstituted in 50% methanol and injected into the HPLC. […] Alternatively, dried samples were applied to plastic-backed silica gel plates and separated by thin-layer chromatography (TLC) using a mobile phase of 3:1 chloroform:ethyl acetate, followed by exposure of the plates to a phosphorimager screen and quantitated with a Storm model 860 phosphorimager (Applied Biosystems, Foster City, Calif.). […]
Cell lines, drugs and constructs. […] Cell lines were authenticated by DDC Medical (Fairfield, Ohio) and determined to be mycoplasma free with primers. […]

Row | Compound | 3βHSD inhibition activity relative to D4A [1] | CYP17A1 inhibition activity relative to Abi and D4A [2] | potency relative to Abi at blocking conversion of [3H]-DHEA by 3βHSD to AD ([1]; LNCaP and VCaP cells, TLC and HPLC) | % conversion to DHEA ([2]; 1 nM drug, 3 h incubation, vehicle 70.1%) [%]
1 | C[C@]12CC[C@@H](O)C[C@@H]1CC[C@@H]1[C@@H]2CC[C@]2(C)C(c3cccnc3)=CC[C@@H]12 [Compound 3α-OH-5α-Abi, 17-(3-pyridyl)-5α-androsta-16-ene-3α-ol] | attenuation or loss | attenuated |  | 
2 | C[C@]12CCC(=O)C[C@@H]1CC[C@@H]1[C@@H]2CC[C@]2(C)C(c3cccnc3)=CC[C@@H]12 [Compound 5α-Abi, 17-(3-pyridyl)-5α-androsta-16-ene-3-one] | attenuation or loss | attenuated |  | 
3 | C[C@]12CCC(=O)C=C1CC[C@@H]1[C@@H]2CC[C@]2(C)C(c3cccnc3)=CC[C@@H]12 [Compound D4A, 17-(3-Pyridyl)androsta-4,16-dien-3-one] |  |  | approximately 10 fold | 4.2
